# From patent US9044474B2, “Compositions and methods for increasing drug efficacy in cancer” (The Ohio State University, priority 2010, dated 2015)
# Counter-ions that a name gives are not always drawn.
# Experiments:
# [1] = tested on: ATF6 at GRP78 promoter region; experiment: ChIP assay of ATF6 at GRP78 promoter in cells from CLL patients undergoing flavopiridol treatment; format: in vivo, human; details: CLL patient samples before and 4.5 hour after flavopiridol infusion
# Description: In brief, cells were treated with 37% formaldehyde to ensure crosslinking of proteins to DNA. Cells were lysed and sonicated to shear the chromatin to fragments of approximately 500 bp. Sheared chromatin was incubated with ATF6 antibody (LifeSpan Biosciences, Seattle, Wash.), followed by precipitation, washing and reversing of the crosslinks Purified DNA was then analyzed by real-time quantitative PCR using primers to the GRP78 promoter region. Primers were designed using Primer 3 software and purchased from IDT (Coralville, Iowa).
# CLL cells = experiment: Intracellular calcium in CLL cells; format: cell-based, human; details: CLL cells treated with flavopiridol
# XBP1, IRE1, GRP78, CHOP = experiment: Real-time RT-PCR of ER stress genes in CLL cells from patients undergoing flavopiridol treatment; format: in vivo, human; details: CLL patients n=10, 4.5 hour
# Description: RNA was extracted using TRIzol reagent (Invitrogen, Carlsbad, Calif.) and purified using QIAGEN RNeasy columns (Qiagen, Valencia, Calif.). cDNA was prepared with SuperScript First-Strand Synthesis System (Invitrogen). Real-time PCR was performed using primers purchased from Applied Biosystems. Detection was performed using an ABI Prism 7700 sequence detection system (Applied Biosystems). Average relative expression (treatment compared with vehicle) was normalized to the internal control gene CD52. Primers to detect spliced XBP1 were designed using Primer 3 software and purchased from IDT. Samples were analyzed on 10% acrylamide gels.
compound,measurement,setting,value
"CN1CC[C@H](c2c(O)cc(O)c3c(=O)cc(-c4ccccc4Cl)oc23)[C@H](O)C1 [flavopiridol, (cis-5,7-dihydroxy-2-(2-chlorophenyl)-8-[4-(3-hydroxy-1-methyl)-piperidin-yl]-1-benzopyran-4-one)hydrochloride]",binding of GRP78 promoter region by ATF6,[1],results were similar
same,intracellular calcium,CLL cells,increase of intracellular calcium
same,"expression of XBP1, IRE1 and GRP78 genes, pre-treatment vs end of infusion","XBP1, IRE1, GRP78, CHOP","significant increases in XBP1, IRE1 and GRP78 genes"
